In the assay the test system is PC3 prostate cancer cells. Briefly: Cell viability of prostate cancer PC3 cells after 72 hours treatment. The class given is cell-based. Particulars: Homo sapiens; for viability at 2.5 µM: PC-3, 2.5 μM; for viability at 5 µM: PC-3, 5 μM; for viability at 10 µM: PC-3, 10 μM; for viability at 20 µM: PC-3, 20 μM. As for the experimental part: Effects of compounds LLS42-LLS80 on the viability of PC3 prostate cancer cells after 72 hours of treatment are shown in Table 2 below: […]

A word on the viability: it is a read-out of living cells in per cent, often relative to untreated cells. On to `COc1ccc(CCn2c(-c3ccc(N(CCOC(C)=O)CCOC(C)=O)cc3)nc3cc(C(CC(N)=O)NCc4ccc5[nH]ncc5c4)ccc32)cc1` (stereo not shown) [LLS53Ac, ((4-(5-(1-(((1H-indazol-5-yl)methyl)amino)-3-amino-3-oxopropyl)-1-(4-methoxyphenethyl)-1H-benzo[d]imidazol-2-yl)phenyl)azanediyl)bis(ethane-2,1-diyl) Diacetate], for which the viability at 2.5 µM was determined as 97%, the viability at 5 µM came to 94%, the viability at 10 µM was determined as 99% and the viability at 20 µM came out at 101%.

As for `NC(=O)CC(NCC1CCCCC1)c1ccc2c(c1)nc(-c1ccc(N3CCOCC3)cc1)n2Cc1ccc(OC(F)(F)F)cc1` (stereo not shown) [LLS80, 3-((cyclohexylmethyl)amino)-3-(2-(4-morpholinophenyl)-1-(4-(trifluoromethoxy)benzyl)-1H-benzo[d]imidazol-5-yl)propanamide], the viability at 2.5 µM is 86%, the viability at 5 µM is 25%, the viability at 10 µM stood at 6% and the viability at 20 µM worked out at 0%.

As for `CC(=O)OCCN(CCO)c1ccc(-c2nc3cc(C(CC(N)=O)NCc4ccc(-c5ccncc5)cc4)ccc3n2CCCn2ccnc2)cc1` (stereo not shown) [LLS67, 2-((4-(1-(3-(1H-imidazol-1-yl)propyl)-5-(3-amino-3-oxo-1-((4-(pyridin-4-yl)benzyl)amino)propyl)-1H-benzo[d]imidazol-2-yl)phenyl)(2-hydroxyethyl)amino)ethyl Acetate], the viability at 2.5 µM was found to be 93%, the viability at 5 µM was found to be 94%, the viability at 10 µM came to 99% and the viability at 20 µM is 93%.

For the compound `COc1ccc(CCn2c(-c3ccc(N(CCOC(C)=O)CCOC(C)=O)cc3)nc3cc(C(CC(N)=O)NCC4CCCCC4)ccc32)cc1` (stereo not shown) [LLS56Ac, ((4-(5-(3-amino-1-((cyclohexylmethyl)amino)-3-oxopropyl)-1-(4-methoxyphenethyl)-1H-benzo[d]imidazol-2-yl)phenyl)azanediyl)bis(ethane-2,1-diyl) Diacetate], the viability at 2.5 µM amounted to 85%, the viability at 5 µM worked out at 93%, the viability at 10 µM turned out to be 92% and the viability at 20 µM was 55%.

For `NC(=O)CC(NCC1CCCCC1)c1ccc2c(c1)nc(-c1ccc(N(CCO)CCO)cc1)n2Cc1ccc(C(F)(F)F)cc1` (stereo not shown) [LLS71, 3-(2-(4-(bis(2-hydroxyethyl)amino)phenyl)-1-(4-(trifluoromethyl)benzyl)-1H-benzo[d]imidazol-5-yl)-3-((cyclohexylmethyl)amino)propanamide], the viability at 2.5 µM turned out to be 91%, the viability at 5 µM came out at 83%, the viability at 10 µM was 59% and the viability at 20 µM was determined as 3%.

For `NC(=O)CC(NCc1cccn1S(=O)(=O)c1ccccc1)c1ccc2c(c1)nc(-c1ccc(N(CCO)CCO)cc1)n2CCCN1CCCCC1` (stereo not shown) [LLS52, 3-(2-(4-(bis(2-hydroxyethyl)amino)phenyl)-1-(3-(piperidin-1-yl)propyl)-1H-benzo[d]imidazol-5-yl)-3-(((1-(phenylsulfonyl)-1H-pyrrol-2-yl)methyl)amino)propanamide], the viability at 2.5 µM stood at 97%, the viability at 5 µM is 96%, the viability at 10 µM is 87% and the viability at 20 µM stood at 84%.

Take `COc1ccc(CCn2c(-c3ccc(N(CCOC(C)=O)CCOC(C)=O)cc3)nc3cc(C(CC(N)=O)NCc4ccc5[nH]ccc5c4)ccc32)cc1` (stereo not shown) [LLS69Ac, ((4-(5-(1-(((1H-indol-5-yl)methyl)amino)-3-amino-3-oxopropyl)-1-(4-methoxyphenethyl)-1H-benzo[d]imidazol-2-yl)phenyl)azanediyl)bis(ethane-2,1-diyl) Diacetate]: the viability at 2.5 µM came to 101%, the viability at 5 µM was determined as 95%, the viability at 10 µM came to 73% and the viability at 20 µM worked out at 2%.

In the case of `NCCCn1c(-c2ccc(N(CCO)CCO)cc2)nc2cc(C(CC(N)=O)NCc3ccc(C4CC=NN4)s3)ccc21` (stereo not shown) [LLS54, 3-(1-(3-aminopropyl)-2-(4-(bis(2-hydroxyethyl)amino)phenyl)-1H-benzo[d]imidazol-5-yl)-3-(((5-(4,5-dihydro-1H-pyrazol-5-yl)thiophen-2-yl)methyl)amino)propanamide], the viability at 2.5 µM came out at 90%, the viability at 5 µM is 86%, the viability at 10 µM is 105% and the viability at 20 µM worked out at 87%.

On to `NC(=O)CC(NCc1cccc2ccccc12)c1ccc2c(c1)nc(-c1ccc(N(CCO)CCO)cc1)n2Cc1ccc(OC(F)(F)F)cc1` (stereo not shown) [LLS63, 3-(2-(4-(bis(2-hydroxyethyl)amino)phenyl)-1-(4-(trifluoromethoxy)benzyl)-1H-benzo[d]imidazol-5-yl)-3-((naphthalen-1-ylmethyl)amino)propanamide], for which the viability at 2.5 µM turned out to be 80%, the viability at 5 µM turned out to be 86%, the viability at 10 µM came to 29% and the viability at 20 µM is 0%.

Consider `COc1ccc(CCn2c(-c3ccc(N(CCOC(C)=O)CCOC(C)=O)cc3)nc3cc(C(N)CC(N)=O)ccc32)cc1` (stereo not shown) [LLS76, ((4-(5-(1,3-diamino-3-oxopropyl)-1-(4-methoxyphenethyl)-1H-benzo[d]imidazol-2-yl)phenyl)azanediyl)bis(ethane-2,1-diyl) Diacetate], for which the viability at 2.5 µM amounted to 92%, the viability at 5 µM is 86%, the viability at 10 µM came to 86% and the viability at 20 µM was 85%.

For the compound `NC(=O)CC(NCc1ccc2[nH]ncc2c1)c1ccc2c(c1)nc(-c1ccc(N(CCO)CCO)cc1)n2Cc1ccc(OC(F)(F)F)cc1` (stereo not shown) [LLS55, 3-(((1H-indazol-5-yl)methyl)amino)-3-(2-(4-(bis(2-hydroxyethyl)amino)phenyl)-1-(4-(trifluoromethoxy)benzyl)-1H-benzo[d]imidazol-5-yl)propanamide], the viability at 2.5 µM was determined as 91%, the viability at 5 µM came to 100%, the viability at 10 µM came to 102% and the viability at 20 µM is 92%.

`CC(=O)OCCN(CCOC(C)=O)c1ccc(-c2nc3cc(C(CC(N)=O)NCc4ccc(Br)s4)ccc3n2CCN)cc1` (stereo not shown) [LLS45Ac, ((4-(5-(3-amino-1-(((5-bromothiophen-2-yl)methyl)amino)-3-oxopropyl)-1-(2-aminoethyl)-1H-benzo[d]imidazol-2-yl)phenyl)azanediyl)bis(ethane-2,1-diyl) Diacetate]: the viability at 2.5 µM amounted to 98%, the viability at 5 µM was 98%, the viability at 10 µM worked out at 98% and the viability at 20 µM was 91%.

Consider `CC(=O)OCCN(CCOC(C)=O)c1ccc(-c2nc3cc(C(CC(N)=O)NCc4cccn4S(=O)(=O)c4ccccc4)ccc3n2CCCN2CCCCC2)cc1` (stereo not shown) [LLS52Ac, ((4-(5-(3-amino-3-oxo-1-(((1-(phenylsulfonyl)-1H-pyrrol-2-yl)methyl)amino)propyl)-1-(3-(piperidin-1-yl)propyl)-1H-benzo[d]imidazol-2-yl)phenyl)azanediyl)bis(ethane-2,1-diyl) Diacetate], for which the viability at 2.5 µM amounted to 91%, the viability at 5 µM was 96%, the viability at 10 µM was determined as 94% and the viability at 20 µM is 91%.

The values are drawn from patent US10844052B2, “LLS compounds for treatment of cancer” (THE REGENTS OF THE UNIVERSITY OF CALIFORNIA, priority 2016, dated 2020).
